Measured values: article PMC9822352, “Design, Synthesis and Evaluation of New Multifunctional Benzothiazoles as Photoprotective, Antioxidant and Antiproliferative Agents” (Molecules, 2022)
Where “and” joins values, the source holds several entries; their conditions need not be identical. Identical values can stand only once.

Legend:
[1] = DPPH radical scavenging test; conditions: mean ± SEM; for DPPH (% Inhibition): compound at 1 mg/mL, 30 min, 517 nm
Description: The DPPH assay is widely used, and the simplest and fastest in vitro method for evaluating the antioxidant power of extracts or isolated compounds; it is based on the depletion of the 2,2-diphenyl-1-picrylhydrazyl radical (DPPH˙) by an antioxidant molecule with scavenger activity. This is an extremely sensitive test that can detect the activity of active ingredients present in very low concentrations.
The procedure used was adapted from Wang et al.. Briefly, 0.750 mL of a methanolic solution of each tested compound was treated with 1.5 mL of DPPH solution (0.004%) in MeOH. Samples were stored in the dark at room temperature for 30 min, and the absorbance value was read with a spectrophotometer at 517 nm, which is the maximum peak of absorbance relative to the DPPH radical absorption spectra. The values obtained were fitted into Equation (1) and converted to inhibition percentage (%) of the radical:DPPH inhibition percentage (%) = 100 × [1 − A1/A0](1) where A1 and A0 were, respectively, the absorbance recorded with and without the sample, which are directly proportional to DPPH residual concentration in the sample and DPPH concentration in the control (0.750 of MeOH and 1.5 mL of DPPH solution). […] A linear regression was performed to calculate the sample concentration able to eliminate 50% of DPPH free radicals.

[2] = FRAP (Ferric Reducing Antioxidant Power) assay; conditions: Trolox standard, 37 °C 10 min, 593 nm; mean ± SEM
Text: The FRAP (Ferric Reducing Antioxidant Power) test allows the measurement of the ability of antioxidants to reduce ferric ion to ferrous. This method represents one of the simplest, quickest and least expensive methods for the determination of reducing properties on oxidized species in vitro.
The FRAP test (Ferric Reducing Antioxidant Power) is based on a colorimetric reaction and evaluates the ability of a sample of reducing ferric ions to ferrous ion while complexed with TPTZ (2,4,6-trispyridil-s-triazine). The FRAP solution was prepared from 0.1 M acetate buffer (pH 3.6), 10 mmol/L of TPTZ in 40 mM HCl, and 20 mM solution of FeCl3, with a 10:1:1 ratio, as described. Then, 1.9 mL of this solution was incubated with 0.1 mL of the sample solution at 37 °C for 10 min. The absorbance was read with a UV-Vis spectrophotometer at a 593 nm wavelength, relative to the maximum peak of absorbance of Fe^2+-TPTZ complex. Trolox® was used as a standard and the results are expressed as µmolTE/g.

[3] = UV spectra in solution (MeOH-DMSO): λmax and molar extinction coefficient; type: physicochemical; conditions: for ε (molar extinction coefficient): at λmax, Lambert-Beer equation, in M-1 cm-1 (unit assumed); for λmax: solution in MeOH-DMSO, 290–400 nm
Description: We next investigated the protective potential against UV radiation of each compound. Specifically, in vitro tests were conducted to determine the parameters related to absorption in the UV spectrum and those fundamental to the relative evaluation of the filtering potential and thus candidature as possible UV sunscreen ingredients of the candidates under examination, including λ critical and SPF (sun protection factor). Since the SPF is correlated to the UV quantitative absorption of the substances, the wavelength of maximum absorption (λmax) and the molar extinction coefficient (ε) of the derivatives in solution (MeOH-DMSO) were evaluated (Figures S1 and S2, Supplementary Materials). The UV spectra of the compounds BZTidr1–6 and BZTcin1–5 were recorded in the UVA-UVB range (290–400 nm) to evaluate their profile and compare it to that of the PBSA, a commercial UVB filter that has a λmax of 302 nm. After this peak, the absorbance of PBSA drops, reaching almost zero in the 325 nm range, and thus not providing absorption in the UVA region.
Once the λmax of each derivative was established, the molar extinction coefficient ε was calculated by applying the Lambert-Beer equation (Table S1, Supplementary Materials): the higher this value, the greater the ability of the compound under examination to absorb UV radiation. […] The excellent values of BZTidr1, BZTidr2 and BZTidr3 are ascribed to the aforementioned hyperchromic shift. In regard to the BZTcin1–5 series, the molar extinction coefficients calculated were very high, and the best values were those of BZTcin1, BZTcin2 and BZTcin3, also attributable to the hyperchromic shift of the absorption spectra. For both series, the excellent absorption capacity of ultraviolet radiation can be traced back to the high π-type conjugation that characterizes them.

[4] = In vitro filtering parameters of O/W sunscreen formulation containing 3% compound (modified Diffey-Robson, PMMA plates); conditions: 3% in formulation, before irradiation
Text: All synthesized compounds were formulated at 3% and their photoprotective efficacy, determined by spectrophotometric measurements using the modified Diffey-Robson method, was compared with that of the lead compound PBSA (used at 3% in the same formulation) and using the base without active as a control (Table 2).
The synthesized compounds were incorporated at a concentration of 3% in a typical oil-in-water sunscreen formulation, to evaluate the filtering parameters, and have the following ingredient composition:
INCI (International Nomenclature Cosmetic Ingredients): aqua, glycerin, Euxyl PE 9010, xanthan gum, Tribehenin PEG-20 Esters, cetearyl alcohol, dicaprylyl carbonate, PPG-26-Buteth-26 (and) PEG-40 Hydrogenated Castor Oil (and) water, C12-C15 Alkyl Benzoate, and Sodium hydroxide (sol. 10%).
As previously reported the protocol indicates to spread 32.5 mg of each formulation on 25 cm^2 PMMA plates with the fingers. Each formulation was tested in triplicate, and five measurements were recorded for each dish, following a 15–30 min incubation in the dark at room temperature. UV transmittance data was recorded using a UV-VIS spectrophotometer in the range 290–400 nm. The blank plate, SPF, UVA-PF and critical wavelength were obtained by SPF Calculator software (version 2.1), Shimadzu, Milan, Italy).

[5] = Photostability study of 3% formulation (post-irradiation filtering parameters); conditions: 3% in formulation, post irradiation
Text: To outline the efficacy and safety profile of a sunscreen formulation, it is essential to provide data relating to photostability. It is possible to provide photodegradation data by recording, pre- and post-irradiation, the transmittance of PMMA plates with finger-coat formulations subjected to a dose of UVA capable of causing erythema, according to the criteria of Garoli et al.. By means of Equations (2) and (3) it was possible to evaluate the residual percentage of SPF in vitro and of UVA-PF for all the prepared formulations. Of greatest interest are the values obtained for the derivatives BZTcin2 and BZTcin4.
To determine the photostability, the previously reported method was adopted, which consists in preparing each plate as mentioned above and subjecting it to solar irradiation quantified as the minimum dose of UVA equivalent to an effective radiant exposure of erythema. The protocol stipulates that, before and after exposure to sunlight, the transmission of the sun protection layer in the range of 290–400 nm is recorded.
Using Equations (2) and (3) below, the residual percentage of SPF in vitro (% SPFeff.) and UVA-PF (% UVA-PFeff.) have been obtained, which, if greater than or equal to 80, can classify a filter as photostable. %SPFeff. = in vitro SPFafter/in vitro SPFbefore × 100(2) %UVA − PFeff. = UVA − PFafter/UVA − PFbefore × 100(3)

HaCat keratinocytes = assay: Cell growth inhibition assay, HaCat; type: cell-based, human; conditions: 24 h incubation, cell count
Description: All synthesized compounds were tested in order to evaluate their in vitro antiproliferative activity. The human melanoma Colo-38 cell line was selected as a tumor skin model, while the immortalized human HaCaT keratinocytes were chosen as a control for the evaluation of the cytotoxicity towards non-cancerous cells and of the selectivity towards tumor cell lines. […] The selectivity index (SI) was also calculated and is the ratio between the IC50 of a given compound towards the non-cancerous cell line and the IC50 of the same compound towards the tumor cell line.
Cell growth inhibition assays were carried out using human melanoma Colo-38 cells and skin HaCat keratinocytes cells. Human melanoma Colo-38 cells were kindly provided by Dr. Patrizio Giacomini (Laboratory of Immunology, Regina Elena Institute, Rome, Italy). HaCat cells were kindly provided by Istituto Zooprofilattico Sperimentale della Lombardia e dell’Emilia Romagna, Brescia, Italy. Cell lines were seeded using concentrations of 40,000 cells/mL and 25,000 cells/mL, respectively. Colo-38 cells were maintained in RPMI 1640, supplemented with 10% fetal bovine serum (FBS), penicillin (100 Units mL^−1), and streptomycin (100 µg mL^−1). HaCat cells were maintained in DMEM, supplemented with 10% fetal bovine serum (FBS), penicillin (100 Units mL^−1), streptomycin (100 µg mL^−1) and glutamine (2 mM); the incubation was performed at 37 °C in a 5% CO2 atmosphere. Tested compounds were dissolved in MeOH/DMSO (1:1) to obtain 50 mM stock solutions and diluted before cell treatment in MeOH 100%. The tested compounds were added at serial dilutions to the cell cultures (from 0.1 to 100 µM) and incubated for 24 h further. Cells were then harvested, suspended in physiological solution, and counted with a Z2 Coulter Counter (Coulter Electronics, Hialeah, FL, USA). The cell number/mL and the IC50 values were determined when untreated cells were in the log phase of cell growth. Cells treated with vehicles and untreated cells were placed in each plate.

Compound | DPPH (% Inhibition) [1] | FRAP [2] | ε (molar extinction coefficient) [3] | λmax [3] | SPF [4] | UVA/UVB [4] | UVAPF0 [4] | λc [4] [nm] | SPF [5] | UVA/UVB [5] | UVAPF [5] | λc [5] [nm] | melting point [°C] | DPPH IC50 [1] [µg/mL] | IC50 (HaCat keratinocytes) [µM]
O=C(C=Cc1ccccc1)Nc1nc2ccccc2s1 [BZTcin1, N-(benzo[d]thiazol-2-yl)cinnamamide] | 0.51 ± 0.27% | 98.69 ± 2.06 µmolTE/g | 33033.71 | 317.0 nm | 1.74 | 0.93 | 1.38 | 370 | 2.33 | 0.93 | 1.48 | 364 |  |  | 
COc1ccc(/C=C/C(=O)Nc2nc3ccccc3s2)cc1 [BZTcin3, (E)-N-(benzo[d]thiazol-2-yl)-3-(4-methoxyphenyl)acrylamide] | 5.77 ± 0.00% | 42.12 ± 1.35 µmolTE/g | 36271.07 | 334.5 nm | 1.32 | 1.07 | 1.38 | 384 | 1.32 | 1.07 | 1.36 | 384 | 260 to 262 |  | 
O=C(N/N=C/c1ccccc1)c1nc2ccccc2s1 [BZTidr1, (E)-N′-benzylidenebenzo[d]thiazole-2-carbohydrazide] | 10.95 ± 0.12% | 282.16 ± 15.03 µmolTE/g | 33223.32 | 319.4 nm | 1.48 | 1.00 | 1.37 | 374 | 1.42 | 1.00 | 1.42 | 372 | 227 to 230 |  | 
COc1ccc(/C=N/NC(=O)c2nc3ccccc3s2)cc1O [BZTidr5, (E)-N′-(3-hydroxy-4-methoxybenzylidene)benzo[d]thiazole-2-carbohydrazide] | 44.00 ± 3.56% | 1758.16 ± 60.41 µmolTE/g | 23462.08 | 342.4 nm | 1.60 | 1.06 | 1.58 | 387 | 1.60 | 1.06 | 1.56 | 387 |  |  | 
COc1cc(/C=N/NC(=O)c2nc3ccccc3s2)ccc1O [BZTidr6, (E)-N′-(3-methoxy-4-hydroxybenzylidene)benzo[d]thiazole-2-carbohydrazide] | >90.00% | 3826.51 ± 90.60 µmolTE/g | 22071.63 | 344.8 nm | 1.24 | 1.06 | 1.36 | 389 | 1.24 | 1.06 | 1.36 | 389 |  | 26.22 ± 1.81 | 
O=C(O)/C=C/c1ccc(O)c(O)c1 [Caffeic acid, reference compound] | 79.95 ± 0.88% | 10,160.24 ± 21.48 µmolTE/g |  |  |  |  |  |  |  |  |  |  |  | 5.26 ± 0.41 | 
N.N.[Cl][Pt][Cl] [Cisplatin, reference compound] |  |  |  |  |  |  |  |  |  |  |  |  |  |  | 2 ± 0.4
O=S(=O)(O)c1ccc2nc(-c3ccccc3)[nH]c2c1 [PBSA, 2-phenyl-1-H-benzimidazole-5-sulfonic acid, reference compound] | <LOQ * | <LOQ * | 23881.86 | 302.0 nm and 302 nm | 1.91 | 0.67 | 1.13 | 357 | 1.98 | 0.67 | 1.13 | 355 |  |  | 
